Results from ChEMBL document CHEMBL6178021, “Optimization of Tambjamines Active against Multiple Stages of Malaria Parasites” (J Med Chem, 2025).

Tests used:
Plasmodium berghei [1] = assay: Anti-malarial activity against Luciferase-expressing Plasmodium berghei sporozoites inoculated in po dosed Albino C57BL/6 mouse malaria model assessed as elimination of parasites in liver by measuring bioluminescence signal measured after 48 hrs; type: functional, organism-based
Plasmodium falciparum [2] = assay: Antiplasmodial activity against asexual blood-stage Plasmodium falciparum Tm90-C2B using 2% haematocrit and 0.2% parasitemia assessed as reduction in fluorescence measured after 72 hrs by Malaria SYBR Green I-based Fluorescence (MSF) assay; type: functional, organism-based
HepG2 = assay: Cytotoxicity against human HepG2 cells assessed as cell viability measured after 48 hrs by MTT assay; type: toxicity, cell-based; settings: hepg2
[3] = Metabolic stability in human liver microsomes assessed as half life measured up to 60 mins by LC/MS analysis; type: ADME, Microsome
[4] = Metabolic stability in mouse liver microsomes assessed as half life measured up to 60 mins by LC/MS analysis; type: ADME, Microsome
Plasmodium yoelii [5] = assay: Antimalarial activity against erythrocytic Plasmodium yoelii MRA-428 infected in CF1 mouse assessed as reduction in parasitemia at 10 mg/kg, po once daily for 4 days measured on day 5; type: functional; design: scale not given: the % may be the effect or the level left; settings: time 4 day
Plasmodium yoelii [6] = assay: Antimalarial activity against erythrocytic Plasmodium yoelii MRA-428 infected in CF1 mouse assessed as reduction in parasitemia at 25 mg/kg, po once daily for 4 days measured on day 5; type: functional; design: scale not given: the % may be the effect or the level left; settings: time 4 day
Plasmodium yoelii [7] = assay: Antimalarial activity against erythrocytic Plasmodium yoelii MRA-428 infected in CF1 mouse assessed as reduction in parasitemia at 80 mg/kg, po once daily for 4 days measured on day 5; type: functional; design: scale not given: the % may be the effect or the level left; settings: time 4 day
Plasmodium yoelii [8] = assay: Antimalarial activity against erythrocytic Plasmodium yoelii MRA-428 infected in CF1 mouse assessed as cured mouse at 25 mg/kg, po once daily for 4 days measured on day 28 day; type: functional, organism-based; settings: time 4.0 day
Plasmodium yoelii [9] = assay: Antimalarial activity against erythrocytic Plasmodium yoelii MRA-428 infected in CF1 mouse assessed as cured mouse at 80 mg/kg, po once daily for 4 days measured on day 28 day; type: functional, organism-based; settings: time 4.0 day
MDR1 (human) [10] = assay: Apparent permeability across apical to basolateral side in MDCK transfected with human MDR1 cells incubated for 1 hr by LC-MS analysis; settings: dog, MDCK-MDR1
MDR1 (human) [11] = assay: Apparent permeability across basolateral to apical side in MDCK transfected with human MDR1 cells incubated for 1 hr by LC-MS analysis; settings: dog, MDCK-MDR1
[12] = Cmax in ICR-CD1 mouse plasma at 40 mg/kg, po; type: ADME, organism-based
[13] = Tmax in ICR-CD1 mouse plasma at 40 mg/kg, po; type: ADME, organism-based
[14] = Half life in ICR-CD1 mouse plasma at 40 mg/kg, po; type: ADME, organism-based
[15] = AUClast in ICR-CD1 mouse plasma at 40 mg/kg, po; type: ADME, organism-based
[16] = AUCextrap (extrapolated from the last observed time point) in ICR-CD1 mouse plasma at 40 mg/kg, po; type: ADME, organism-based; settings: in vivo
[17] = AUCinf in ICR-CD1 mouse plasma at 40 mg/kg, po; type: ADME, organism-based; settings: in vivo
[18] = Apparent oral clearance in ICR-CD1 mouse plasma at 40 mg/kg, po; type: ADME, organism-based; settings: in vivo
[19] = MRTlast in ICR-CD1 mouse plasma at 40 mg/kg, po; type: ADME, organism-based
[20] = Tmax in ICR-CD1 mouse liver at 40 mg/kg, po; type: ADME, organism-based
[21] = Half life in ICR-CD1 mouse liver at 40 mg/kg, po; type: ADME, organism-based
[22] = AUClast in ICR-CD1 mouse liver at 40 mg/kg, po; type: ADME, organism-based
[23] = AUCextrap (extrapolated from the last observed time point) in ICR-CD1 mouse liver at 40 mg/kg, po; type: ADME, organism-based; settings: in vivo
[24] = AUCinf in ICR-CD1 mouse liver at 40 mg/kg, po; type: ADME, organism-based
[25] = Apparent oral clearance in ICR-CD1 mouse liver at 40 mg/kg, po; type: ADME, organism-based
[26] = MRTlast in ICR-CD1 mouse liver at 40 mg/kg, po; type: ADME, organism-based
Plasmodium berghei [27] = assay: Anti-malarial activity against Luciferase-expressing Plasmodium berghei sporozoites inoculated in po dosed Albino C57BL/6 mouse malaria model assessed as elimination of parasites in blood by measuring bioluminescence signal measured after 72 hrs; type: functional, organism-based
Plasmodium berghei [28] = assay: Anti-malarial activity against Luciferase-expressing Plasmodium berghei sporozoites inoculated in Albino C57BL/6 mouse malaria model assessed as reduction in parasites in liver at 40 mg/kg, po by measuring bioluminescence signal measured after 48 hrs relative to control; type: functional; design: scale not given: the % may be the effect or the level left
Plasmodium berghei [29] = assay: Anti-malarial activity against Luciferase-expressing Plasmodium berghei sporozoites inoculated in Albino C57BL/6 mouse malaria model assessed as reduction in parasites in liver at 40 mg/kg, po by measuring bioluminescence signal measured after 72 hrs relative to control; type: functional; design: scale not given: the % may be the effect or the level left
Plasmodium berghei [30] = assay: Anti-malarial activity against Luciferase-expressing Plasmodium berghei sporozoites inoculated in Albino C57BL/6 mouse malaria model assessed as increase in survival time at 40 mg/kg, po relative to control; type: functional
[31] = Toxicity in Albino C57BL/6 mouse inoculated with Luciferase-expressing Plasmodium berghei sporozoites at 40 mg/kg, po; type: organism-based; settings: in vivo
[32] = Toxicity in CF1 mouse infected with erythrocytic Plasmodium yoelii MRA-428 assessed as adverse event at 10 to 80 mg/kg, po once daily for 4 days measured on day 28 day; type: organism-based; settings: in vivo, 96 h, dose 10-80 mg/kg, time 4 day
Plasmodium falciparum [33] = assay: Anti-plasmodial activity against Plasmodium falciparum 3D7 infected in erythrocytes assessed as Lag phase (time to observe the maximal killing effect of the drug) at 1.188 uM; type: functional
Plasmodium falciparum [34] = assay: Anti-plasmodial activity against Plasmodium falciparum 3D7 infected in erythrocytes assessed as parasite reduction ratio at 1.188 uM measured 22 to 28 days; type: functional; settings: time 22-28 day
Plasmodium falciparum [35] = assay: Anti-plasmodial activity against Plasmodium falciparum 3D7 infected in erythrocytes assessed as parasite clearance time at 1.188 uM measured 22 to 28 days relative to initial population; type: functional; settings: time 22-28 day
Plasmodium falciparum [36] = assay: Anti-plasmodial activity against Plasmodium falciparum Dd2 assessed as growth inhibition measured after 72 hrs by Malaria SYBR Green I-based Fluorescence (MSF) assay; type: functional, organism-based; settings: Dd2, 72 h
Plasmodium falciparum [37] = assay: Anti-plasmodial activity against ART-resistant Plasmodium falciparum DR1 assessed as growth inhibition measured after 72 hrs by Malaria SYBR Green I-based Fluorescence (MSF) assay; type: functional, organism-based; settings: DR1, 72 h
Plasmodium falciparum [38] = assay: Anti-plasmodial activity against ART-resistant Plasmodium falciparum DR4 assessed as growth inhibition measured after 72 hrs by Malaria SYBR Green I-based Fluorescence (MSF) assay; type: functional, organism-based; settings: DR4, 72 h
[39] = Chemical stability of the compound assessed as half life in acetate buffer at pH 4.5; type: physicochemical
[40] = Chemical stability of the compound assessed as half life in PBS buffer at pH 6.6 to 9; type: physicochemical
[41] = Chemical stability of the compound assessed as half life in PBS buffer at pH 7.4; type: physicochemical
[42] = Mutagenicity in Salmonella typhimurium TA98 at 10 uM by Ames test; type: toxicity; settings: salmonella enterica subsp. enterica serovar typhimurium
[43] = Mutagenicity in Salmonella typhimurium TA98 with S9 fraction at 10 uM by Ames test; type: toxicity, subcellular; settings: salmonella enterica subsp. enterica serovar typhimurium, s9, 10 µM
[44] = molecular target: Voltage-gated inwardly rectifying potassium channel KCNH2 (Homo sapiens, UniProt Q12809); assay: Inhibition of hERG expressed in CHO cells by Whole cell patch clamp assay; type: toxicity, cell-based
in vitro [45] = settings: human, liver microsomes
in vitro [46] = settings: mouse, liver microsomes
Plasmodium falciparum [47] = assay: microbe, parasite or virus in culture; settings: Dd2, 72 h
Description: Antiplasmodial activity against asexual blood-stage Plasmodium falciparum Dd2 using 2% haematocrit and 0.2% parasitemia assessed as reduction in fluorescence measured after 72 hrs by Malaria SYBR Green I-based Fluorescence (MSF) assay

Sequence of Voltage-gated inwardly rectifying potassium channel KCNH2 (Q12809 whole entry): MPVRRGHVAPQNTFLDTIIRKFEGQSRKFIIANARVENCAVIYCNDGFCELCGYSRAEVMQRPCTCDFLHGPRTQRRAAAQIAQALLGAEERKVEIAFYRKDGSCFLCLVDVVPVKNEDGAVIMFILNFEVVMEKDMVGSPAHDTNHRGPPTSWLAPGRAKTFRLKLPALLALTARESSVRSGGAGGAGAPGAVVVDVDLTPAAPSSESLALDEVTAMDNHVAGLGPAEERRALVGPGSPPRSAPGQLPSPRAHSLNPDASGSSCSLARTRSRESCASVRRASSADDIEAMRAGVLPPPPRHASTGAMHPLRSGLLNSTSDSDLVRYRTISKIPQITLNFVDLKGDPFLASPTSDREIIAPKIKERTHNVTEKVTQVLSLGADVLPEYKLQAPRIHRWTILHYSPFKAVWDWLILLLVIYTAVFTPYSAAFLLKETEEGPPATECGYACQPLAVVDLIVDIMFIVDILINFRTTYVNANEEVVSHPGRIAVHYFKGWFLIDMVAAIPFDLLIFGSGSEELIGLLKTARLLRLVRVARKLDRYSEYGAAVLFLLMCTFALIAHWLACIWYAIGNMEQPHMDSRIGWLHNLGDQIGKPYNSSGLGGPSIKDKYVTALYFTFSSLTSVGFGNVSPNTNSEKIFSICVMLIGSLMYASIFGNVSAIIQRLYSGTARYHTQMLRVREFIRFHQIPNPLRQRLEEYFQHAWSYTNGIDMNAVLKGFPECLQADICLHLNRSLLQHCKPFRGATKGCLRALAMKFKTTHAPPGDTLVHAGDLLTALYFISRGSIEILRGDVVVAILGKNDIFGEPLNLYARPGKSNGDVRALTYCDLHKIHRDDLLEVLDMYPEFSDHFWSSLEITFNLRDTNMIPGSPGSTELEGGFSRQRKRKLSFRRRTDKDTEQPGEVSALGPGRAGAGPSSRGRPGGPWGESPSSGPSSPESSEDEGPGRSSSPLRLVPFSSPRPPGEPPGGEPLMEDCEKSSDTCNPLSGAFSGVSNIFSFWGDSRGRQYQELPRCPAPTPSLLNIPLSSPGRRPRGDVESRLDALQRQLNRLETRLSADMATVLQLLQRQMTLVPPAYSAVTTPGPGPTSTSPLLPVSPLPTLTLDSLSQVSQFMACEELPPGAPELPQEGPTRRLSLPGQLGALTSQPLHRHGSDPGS

What does the source list for `CCC1=C(CC)/C(=C/NC2CCCCC2)N=C1c1ccc(C)[nH]1`?
Activity (Plasmodium berghei [1]): Dose-dependent-effect; IC50 (Plasmodium falciparum [2]): 18.4 nM; IC50 (HepG2): 7530 nM; half-life [3]: 0.978 h; half-life [4]: > 1 h; Activity (Plasmodium yoelii [5]): 88.6%; Activity (Plasmodium yoelii [6]): 100%; Activity (Plasmodium yoelii [7]): 100%; Activity (Plasmodium yoelii [8]): Active; Four Mouse Cured Out Of Four; Activity (Plasmodium yoelii [9]): Active; Four Mouse Cured Out Of Four; Papp A→B at 1 h (MDR1 (human) [10]): 0.013 ×10⁻⁶ cm/s; Papp B→A at 1 h (MDR1 (human) [11]): 0.002 ×10⁻⁶ cm/s; Cmax [12]: 1440 ng/mL; Tmax [13]: 30 h; half-life [14]: 5.64 h; AUC(0-t) [15]: 67600 ng·h/mL; %AUCextra [16]: 0.83%; AUC [17]: 68123 ng·h/mL; CL/F [18]: 0.312 mL/min/kg; MRT last [19]: 31.5 h; Tmax [20]: 30 h; half-life [21]: 5.07 h; AUC(0-t) [22]: 1960 ng·h/mL; %AUCextra [23]: 0.5%; AUC(0-inf) [24]: 1980 ng·h/mL; CL/F [25]: 10.8 mL/min/kg; MRT last [26]: 31.6 h; Activity (Plasmodium berghei [27]): Dose-dependent-effect; Activity (Plasmodium berghei [28]): 72%; Activity (Plasmodium berghei [29]): 97%; Survival (Plasmodium berghei [30]): 3 days; Activity [31]: Non-toxic; Activity [32]: Non-toxic; Time (Plasmodium falciparum [33]): 0 h; log(activity) (Plasmodium falciparum [34]): 3.83; T99.9% (Plasmodium falciparum [35]): 39.5 h; IC50 (Plasmodium falciparum [36]): 13.9 nM; IC50 (Plasmodium falciparum [37]): 16.4 nM; IC50 (Plasmodium falciparum [38]): 14.1 nM; half-life [39]: ≥ 3.33 h; half-life [40]: ≥ 3.33 h; t1/2 [41]: 4.5 h; Activity [42]: Non-toxic; Activity [43]: Non-toxic; IC50 [44]: 4400 nM; IC20 ([44]; human, cho): 1900 nM; microsomal CLint at 1 h (in vitro [45]): 23.6 µL/min/mg; microsomal CLint at 1 h (in vitro [46]): 19.9 µL/min/mg; IC50 (Plasmodium falciparum [47]): 8.04 nM
